Experimental findings from US20090155209A1, “NOVEL MACROCYCLIC INHIBITORS OF HEPATITIS C VIRUS REPLICATION” (priority 2007, published 2009) are described below.

SMILES strings stand for the structures. A value given as a limit tells only on which side of the number the result lay.

Test [1] concerns the target T1, NS3-NS4 (Hepatitis C virus genotype 1a, UniProt P27958). The experiment in a line: NS3-NS4 activity, IC50 (Example 37, Table 8). It is filed as biochemical.
The target of test [2] is T1, NS3-NS4. Nature of the test: cell-based. Particulars: EC50, NS3-NS4 activity.

T1 sequence (P27958 1027-1657): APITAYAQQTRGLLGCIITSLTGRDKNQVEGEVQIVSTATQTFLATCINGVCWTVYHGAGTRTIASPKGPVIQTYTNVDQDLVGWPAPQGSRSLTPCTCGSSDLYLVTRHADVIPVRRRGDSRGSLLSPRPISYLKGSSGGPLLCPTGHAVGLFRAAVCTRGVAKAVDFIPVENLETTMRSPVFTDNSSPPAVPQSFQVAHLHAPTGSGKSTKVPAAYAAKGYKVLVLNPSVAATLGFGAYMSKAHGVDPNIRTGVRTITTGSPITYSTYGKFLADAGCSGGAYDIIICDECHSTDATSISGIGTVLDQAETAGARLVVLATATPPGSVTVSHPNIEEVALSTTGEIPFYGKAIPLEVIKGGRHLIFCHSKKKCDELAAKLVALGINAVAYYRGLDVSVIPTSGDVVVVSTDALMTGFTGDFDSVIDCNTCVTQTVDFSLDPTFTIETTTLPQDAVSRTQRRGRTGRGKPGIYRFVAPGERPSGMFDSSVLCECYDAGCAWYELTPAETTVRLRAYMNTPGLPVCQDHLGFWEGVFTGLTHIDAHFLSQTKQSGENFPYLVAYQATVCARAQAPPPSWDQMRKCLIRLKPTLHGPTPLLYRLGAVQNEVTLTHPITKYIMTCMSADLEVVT
T1 sequence (P27958 1658-1711): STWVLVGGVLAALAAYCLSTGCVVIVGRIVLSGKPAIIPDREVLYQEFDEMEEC

The IC50 is the midpoint of a concentration-inhibition curve. A high value points to a need for much substance. For orientation: EC50 means the concentration that produces a half-maximal response. In the case of `O=C1N[C@]2(C(=O)NS(=O)(=O)C3CC3)C[C@H]2/C=C\CCCCC[C@H](Nc2nc(-c3ccccc3Cl)cs2)C(=O)N2C[C@H](OC(=O)N3Cc4cccc(F)c4C3)C[C@@H]12` [Compound 209], on NS3-NS4 [1], the half-maximal inhibitory concentration (IC50) is less than 100 nM. This molecule also returned a half-maximal effective concentration (EC50) at NS3-NS4 [2] of less than 100 nM.
In the case of `COc1ccc(S(=O)(=O)NC(=O)[C@@]23C[C@H]2/C=C\CCCCC[C@H](NC(=O)OC(C)(C)C)C(=O)N2C[C@H](OC(=O)N4Cc5cccc(F)c5C4)C[C@H]2C(=O)N3)cc1` [Compound 352], the half-maximal inhibitory concentration (IC50) at NS3-NS4 [1] is less than 100 nM. For the same molecule, at NS3-NS4 [2], the half-maximal effective concentration (EC50) is less than 100 nM.
In turn, `Cc1ccc(S(=O)(=O)NC(=O)[C@@]23C[C@H]2/C=C\CCCCC[C@H](NC(=O)OC(C)(C)C)C(=O)N2C[C@H](OC(=O)N4Cc5cccc(F)c5C4)C[C@H]2C(=O)N3)s1` [Compound 538] displayed an IC50 on NS3-NS4 [1] of less than 100 nM. At NS3-NS4 [2], this molecule registered a half-maximal effective concentration (EC50) of less than 100 nM.
Turning to `CC(C)c1cnc(N[C@H]2CCCCC/C=C\[C@@H]3C[C@@]3(C(=O)NS(=O)(=O)C3CC3)NC(=O)[C@@H]3C[C@@H](OC(=O)N4Cc5cccc(F)c5C4)CN3C2=O)s1` [Compound 201, (2R,6S,13aS,14aR,16aS,Z)-14a-(cyclopropylsulfonylcarbamoyl)-6-(5-isopropylthiazol-2-ylamino)-5,16-dioxo-1,2,3,5,6,7,8,9,10,11,13a,14,14a,15,16,16a-hexadecahydrocyclopropa[e]pyrrolo[1,2-a][1,4]diazacyclopentadecin-2-yl 4-fluoroisoindoline-2-carboxylate], the half-inhibitory concentration (IC50) on NS3-NS4 [1] was less than 100 nM. Also, the concentration giving a half-maximal response (EC50) on NS3-NS4 [2] is less than 100 nM.
`O=C(N[C@H]1CCCCC/C=C\[C@@H]2C[C@@]2(C(=O)NS(=O)(=O)c2ccc(Cl)cc2)NC(=O)[C@@H]2C[C@@H](OC(=O)N3Cc4cccc(F)c4C3)CN2C1=O)OC1CCOC1` (some centres unmarked) [Compound 334] showed a half-inhibitory concentration (IC50) on NS3-NS4 [1] of less than 100 nM. The EC50 on NS3-NS4 [2] is less than 100 nM.
The molecule `CCC(C)(C)OC(=O)N[C@H]1CCCCC/C=C\[C@@H]2C[C@@]2(C(=O)NS(=O)(=O)c2cc(Cl)sc2Cl)NC(=O)[C@@H]2C[C@@H](OC(=O)N3Cc4cccc(F)c4C3)CN2C1=O` [Compound 344] came in with an IC50 at NS3-NS4 [1] of less than 100 nM. The molecule further returned an EC50 at NS3-NS4 [2] of less than 100 nM.
Turning to `Cc1cccc(S(=O)(=O)NC(=O)[C@@]23C[C@H]2/C=C\CCCCC[C@H](NC(=O)OC(C)(C)C)C(=O)N2C[C@H](OC(=O)N4Cc5cccc(F)c5C4)C[C@H]2C(=O)N3)c1` [Compound 317], the concentration for half-maximal inhibition (IC50) against NS3-NS4 [1] was less than 100 nM. At NS3-NS4 [2], the EC50 was less than 100 nM.
`Cc1ccc(S(=O)(=O)NC(=O)[C@@]23C[C@H]2/C=C\CCCCC[C@H](NC(=O)OC(C)(C)C)C(=O)N2C[C@H](OC(=O)N4Cc5cccc(F)c5C4)C[C@H]2C(=O)N3)o1` [Compound 533] registered an IC50 on NS3-NS4 [1] of less than 100 nM. The EC50 on NS3-NS4 [2] was less than 100 nM.
With `Cc1cccc(ONC(=O)[C@@]23C[C@H]2CCCCCCC[C@H](NC(=O)OC(C)(C)C)C(=O)N2C[C@H](OC(=O)N4Cc5cccc(F)c5C4)C[C@H]2C(=O)N3)c1` [Compound 805], the IC50 at NS3-NS4 [1] was less than 100 nM. The molecule also returned a concentration for a half-maximal effect (EC50) at NS3-NS4 [2] of 1000 to 10000 nM.
For `Cc1ccccc1S(=O)(=O)NC(=O)[C@@]12C[C@H]1/C=C\CCCCC[C@H](NC(=O)N(C)C(C)(C)C)C(=O)N1C[C@H](OC(=O)N3Cc4cccc(F)c4C3)C[C@H]1C(=O)N2` [Compound 358], the 50% inhibitory concentration (IC50) against NS3-NS4 [1] was less than 100 nM. At NS3-NS4 [2], this molecule returned a concentration giving a half-maximal response (EC50) of less than 100 nM.
In the case of `O=C1NC2(C(=O)NS(=O)(=O)C3CC3)C[C@H]2/C=C\CCCCC[C@H](Nc2nc(-c3ccc(F)cc3)cs2)C(=O)N2C[C@H](OC(=O)N3Cc4cccc(F)c4C3)C[C@@H]12` (some centres unmarked) [Compound 224], the IC50 against NS3-NS4 [1] is less than 100 nM. At NS3-NS4 [2], this molecule registered a concentration for a half-maximal effect (EC50) of less than 100 nM.
The molecule `O=C1N[C@]2(C(=O)NS(=O)(=O)C3CC3)C[C@H]2/C=C\CCCCC[C@H](Nc2nc(-c3ccc(Cl)cc3)cs2)C(=O)N2C[C@H](OC(=O)N3Cc4cccc(F)c4C3)C[C@@H]12` [Compound 207] came in with an IC50 on NS3-NS4 [1] of less than 100 nM. On NS3-NS4 [2], this molecule returned an EC50 of less than 100 nM.
At NS3-NS4 [1], `CC(C)(C)CONC(=O)[C@@]12C[C@H]1/C=C\CCCCC[C@H](NC(=O)OC(C)(C)C)C(=O)N1C[C@H](OC(=O)N3Cc4cccc(F)c4C3)C[C@H]1C(=O)N2` [Compound 720] displayed an IC50 of less than 100 nM. The molecule further had a concentration giving a half-maximal response (EC50) at NS3-NS4 [2] of less than 100 nM.
Regarding `Cc1cc(C)cc(ONC(=O)[C@@]23C[C@H]2CCCCCCC[C@H](NC(=O)OC(C)(C)C)C(=O)N2C[C@H](OC(=O)N4Cc5cccc(F)c5C4)C[C@H]2C(=O)N3)c1` [Compound 807], the half-maximal inhibitory concentration (IC50) against NS3-NS4 [1] was less than 100 nM. For the same molecule, on NS3-NS4 [2], the concentration giving a half-maximal response (EC50) is 1000 to 10000 nM.
The like results for `O=C1N[C@]2(C(=O)NS(=O)(=O)C3CC3)C[C@H]2/C=C\CCCCC[C@H](Nc2nc(-c3cccnc3)cs2)C(=O)N2C[C@H](OC(=O)N3Cc4cccc(F)c4C3)C[C@@H]12` [Compound 214] were, in that order, less than 100 nM and less than 100 nM.
The like results for `CCC(C)(C)OC(=O)N[C@H]1CCOCC/C=C\[C@@H]2C[C@@]2(C(=O)NS(=O)(=O)c2ccc(Cl)cc2)NC(=O)[C@@H]2C[C@@H](OC(=O)N3Cc4cccc(Cl)c4C3)CN2C1=O` [Compound 325, (2R,6S,13aS,14aR,16aS,Z)-14a-(4-chlorophenylsulfonylcarbamoyl)-5,16-dioxo-6-(tert-pentyloxycarbonylamino)-2,3,5,6,7,8,10,11,13a,14,14a,15,16,16a-tetradecahydro-1H-cyclopropa[j]pyrrolo[1,2-f][1,6,9]oxadiazacyclopentadecin-2-yl 4-chloroisoindoline-2-carboxylate] were, in that order, less than 100 nM and less than 100 nM.
At NS3-NS4 [1], `CC(C)(C)O[C@@H]1C[C@H]2C(=O)N[C@]3(C(=O)NS(=O)(=O)C4CC4)C[C@H]3/C=C\CCCCC[C@H](Nc3ncc(-c4ccccc4)s3)C(=O)N2C1` [Compound 202, (2R,6S,13aS,14aR,16aS,Z)-2-tert-butoxy-N-(cyclopropylsulfonyl)-5,16-dioxo-6-(5-phenylthiazol-2-ylamino)-1,2,3,5,6,7,8,9,10,11,13a,14,14a,15,16,16a-hexadecahydrocyclopropa[e]pyrrolo[1,2-a][1,4]diazacyclopentadecine-14a-carboxamide] yielded a half-maximal inhibitory concentration (IC50) of less than 100 nM. On NS3-NS4 [2], this molecule yielded an EC50 of 100 to 1000 nM.
The like results for `Cc1csc(S(=O)(=O)NC(=O)[C@@]23C[C@H]2CCCCCCC[C@H](NC(=O)OC(C)(C)C)C(=O)N2C[C@H](OC(=O)N4Cc5cccc(F)c5C4)C[C@H]2C(=O)N3)c1` [Compound 645] were, in that order, less than 100 nM and less than 100 nM.
The molecule `CN(C(=O)N[C@H]1CCCCC/C=C\[C@@H]2C[C@@]2(C(=O)NS(=O)(=O)C2CC2)NC(=O)[C@@H]2C[C@@H](OC(=O)N3Cc4cccc(Cl)c4C3)CN2C1=O)C(C)(C)C` [Compound 424] registered a 50% inhibitory concentration (IC50) against NS3-NS4 [1] of less than 100 nM. At NS3-NS4 [2], this molecule came in with an EC50 of less than 100 nM.
Take `N#Cc1ccc(-c2csc(N[C@H]3CCCCC/C=C\[C@@H]4C[C@@]4(C(=O)NS(=O)(=O)C4CC4)NC(=O)[C@@H]4C[C@@H](OC(=O)N5Cc6cccc(F)c6C5)CN4C3=O)n2)cc1` [Compound 211]: at NS3-NS4 [1], the IC50 was less than 100 nM. The EC50 on NS3-NS4 [2] is less than 100 nM.
Turning to `C=CCC1(S(=O)(=O)NC(=O)[C@@]23C[C@H]2/C=C\CCCCC[C@H](NC(=O)OC(C)(C)C)C(=O)N2C[C@H](OC(=O)N4Cc5cccc(F)c5C4)C[C@H]2C(=O)N3)CC1` [Compound 543], the IC50 on NS3-NS4 [1] was less than 100 nM. On NS3-NS4 [2], the EC50 is less than 100 nM.
`O=C(N[C@H]1CCCCC/C=C\[C@@H]2C[C@@]2(C(=O)NS(=O)(=O)C2CC2)NC(=O)[C@@H]2C[C@@H](OC(=O)N3Cc4cccc(Cl)c4C3)CN2C1=O)OC1CCOCC1` [Compound 411]: the half-inhibitory concentration (IC50) at NS3-NS4 [1] was less than 100 nM. The molecule also displayed a concentration giving a half-maximal response (EC50) on NS3-NS4 [2] of less than 100 nM.
At NS3-NS4 [1], `O=C(N[C@H]1CCCCC/C=C\[C@@H]2C[C@@]2(C(=O)NS(=O)(=O)c2ccc(Cl)cc2)NC(=O)[C@@H]2C[C@@H](OC(=O)N3Cc4cccc(F)c4C3)CN2C1=O)OC1CCC1` [Compound 339] registered an IC50 of less than 100 nM. In addition, the 50% effective concentration (EC50) at NS3-NS4 [2] was less than 100 nM.
At NS3-NS4 [1], `CC(C)(C)OC(=O)N[C@H]1CCCCC/C=C\[C@@H]2C[C@@]2(C(=O)NOCCO)NC(=O)[C@@H]2C[C@@H](OC(=O)N3Cc4cccc(F)c4C3)CN2C1=O` [Compound 106] gave an IC50 of less than 100 nM. The EC50 on NS3-NS4 [2] was 100 to 1000 nM.
`CCC(C)(C)OC(=O)N[C@H]1CCCCC/C=C\[C@@H]2C[C@@]2(C(=O)NS(=O)(=O)c2ccccc2C)NC(=O)[C@@H]2C[C@@H](OC(=O)N3Cc4cccc(F)c4C3)CN2C1=O` [Compound 337] displayed a 50% inhibitory concentration (IC50) at NS3-NS4 [1] of less than 100 nM. For the same molecule, the EC50 at NS3-NS4 [2] was less than 100 nM.
In the case of `C[C@H](O)CONC(=O)[C@@]12C[C@H]1/C=C\CCCCC[C@H](NC(=O)OC(C)(C)C)C(=O)N1C[C@H](OC(=O)N3Cc4cccc(F)c4C3)C[C@H]1C(=O)N2` [Compound 110], at NS3-NS4 [1], the IC50 is less than 100 nM. The concentration for a half-maximal effect (EC50) at NS3-NS4 [2] is less than 100 nM.
`CC(C)(C)ONC(=O)[C@@]12C[C@H]1/C=C\CCCCC[C@H](NC(=O)OC(C)(C)C)C(=O)N1C[C@H](OC(=O)N3Cc4cccc(Cl)c4C3)C[C@H]1C(=O)N2` [Compound 108] showed an IC50 against NS3-NS4 [1] of less than 100 nM. This molecule also returned an EC50 at NS3-NS4 [2] of less than 100 nM.
The molecule `CC(C)(C)OC(=O)N[C@H]1CCCCC/C=C\[C@@H]2C[C@@]2(C(=O)NOc2ccccc2)NC(=O)[C@@H]2C[C@@H](OC(=O)N3Cc4cccc(F)c4C3)CN2C1=O` [Compound 711] returned an IC50 on NS3-NS4 [1] of less than 100 nM. The molecule further displayed a 50% effective concentration (EC50) at NS3-NS4 [2] of 1000 to 10000 nM.
The like results for `O=C(N[C@H]1CCCCC/C=C\[C@@H]2C[C@@]2(C(=O)NS(=O)(=O)c2ccc(Cl)cc2)NC(=O)[C@@H]2C[C@@H](OC(=O)N3Cc4cccc(Cl)c4C3)CN2C1=O)OC1CCOCC1` [Compound 335] were, in that order, less than 100 nM and 100 to 1000 nM.
In the case of `CC(C)(C)OC(=O)N[C@H]1CCCCCCC[C@@H]2C[C@@]2(C(=O)NS(=O)(=O)c2cc3ccccc3o2)NC(=O)[C@@H]2C[C@@H](OC(=O)N3Cc4cccc(F)c4C3)CN2C1=O` [Compound 648], at NS3-NS4 [1], the IC50 is less than 100 nM. Moreover, on NS3-NS4 [2], the EC50 lay within 100 to 1000 nM.
The like results for `CC(C)CC1(S(=O)(=O)NC(=O)[C@@]23C[C@H]2CCCCCCC[C@H](NC(=O)OC(C)(C)C)C(=O)N2C[C@H](OC(=O)N4Cc5cccc(F)c5C4)C[C@H]2C(=O)N3)CC1` [Compound 654] were, in that order, less than 100 nM and less than 100 nM.
